Results as given in US7816332B2, “Stable aqueous solution of natamycin fungicide” (DSM IP Assets B.V., priority 2003, dated 2010).
Read-outs that look alike come from different tables or passages of the source.

Assays:
[1] = cited from earlier work
[2] = system: most foodborne fungi; details: cited from earlier work
[3] = Dissolution of natamycin when preparing solutions, with controls (Example 1); assay type: physicochemical
Procedure: (§1) • An ethanolic aqueous solution having a pH of 12.8 was prepared by mixing 60 ml of a 0.04 N sodium hydroxide solution and 40 ml of 96% ethanol. • While stirring vigorously, 1 g of natamycin was added. The natamycin dissolved within 2 minutes. • Immediately after dissolution, the obtained concentrated natamycin solution was added to 20 l of a 0.01 M citrate buffer solution. A solution containing 57 ppm of natamycin and 0.2% of ethanol with a pH of 6.5 was obtained. • In a similar manner, a solution containing 101 ppm of natamycin and 0.4% of ethanol and a solution containing 202 ppm of natamycin and 0.8% of ethanol was obtained by adding the concentrated natamycin solution to […] of a 0.01 M citrate buffer respectively. Preparation of the Natamycin Solutions (2)
Controls • 1 g of natamycin was added to a neutral ethanolic aqueous system containing up to 40% of ethanol.

[4] = Stability of non-buffered natamycin solutions on storage (Example 2); assay type: physicochemical
Procedure: This Example describes the rapid preparation of a stable aqueous composition of natamycin in a non-buffered aqueous system with enhanced solubility. • A concentrated natamycin solution was prepared as described in Example 1 (1). • However, after diluting the concentrated natamycin solution in water, the pH was adjusted to 6.4-6.6 using HCL. Finally, solutions containing 101 and 202 ppm of natamycin were obtained. • The amount of natamycin in the compositions was determined after 24 hours storage at 21° C. The concentration of natamycin was 99 and 192 ppm respectively. Hardly any loss of activity was observed after 9 days storage at 6° C. The concentration of natamycin was 98 and 198 ppm respectively. Even after storage for 9 days at 21° C. the concentration of natamycin in the composition containing 101 ppm at t=0 was 82 ppm. […] The amount of dissolved natamycin of these solutions is at least 6 times higher than the maximum solubility in water at the same pH values

[5] = Stability of buffered natamycin solutions on storage, HPLC (Example 1); assay type: physicochemical; details: for amount of natamycin after storage (HPLC): 24 hours at 21° C.
Procedure: as §1
Stability of the Solutions • The amount of natamycin in the compositions (1) was determined after 24 hours storage at 21° C. The amount of natamycin was determined using well-known methods (HPLC) and shown to be 57, 97 and 196 ppm respectively. Hardly any loss of activity was observed after 9 days storage at 6° C. The concentration of natamycin was 49, 100 and 170 ppm respectively. Even after storage for 9 days at 21° C., the concentration of natamycin of the composition containing 101 ppm at t=0 was 99 ppm.

[6] = system: most yeasts; details: cited from earlier work

C[C@@H]1C/C=C/C=C/C=C/C=C/[C@H](O[C@@H]2O[C@H](C)[C@@H](O)[C@H](N)[C@@H]2O)C[C@@H]2O[C@](O)(C[C@@H](O)C[C@H]3O[C@@H]3/C=C/C(=O)O1)C[C@H](O)[C@H]2C(=O)O [natamycin]
maximum solubility ([1]; acetone/water (4:1) system): 110 ppm | solubility ([1]; ethanol/water (4:1) system): 220 ppm | solubility ([1]; pure ethanol): 40 ppm | solubility in water ([1]; water at neutral pH levels): 30 ppm | minimal inhibitory concentration [2]: less than 10 ppm | time to dissolve ([3]; 1 g natamycin in 100 ml ethanolic aqueous solution of pH 12.8 (0.04 N NaOH / 96% ethanol 60:40), vigorous stirring): ≤ 2 min | dissolution (control) ([3]; 1 g natamycin in neutral ethanolic aqueous system containing up to 40% ethanol, a few hours of stirring): not fully dissolved | dissolution (control) ([3]; 200 ppm natamycin in buffered aqueous system, solvent not present): did not dissolve | dissolution (control) ([3]; 200 ppm natamycin, solvent present, without first raising the pH to 12.8): did not dissolve | dissolution (control) ([3]; same procedure as Example 1 without adding a solvent): did not dissolve | amount of dissolved natamycin relative to maximum solubility in water at the same pH ([4]; Example 2 non-buffered solutions): at least 6 times | concentration of natamycin after storage ([4]; non-buffered solution with 101 ppm at t=0, pH 6.4-6.6 (HCl), 24 hours at 21° C.): 99 ppm | concentration of natamycin after storage ([4]; non-buffered solution with 101 ppm at t=0, 9 days at 6° C.): 98 ppm | concentration of natamycin after storage ([4]; non-buffered solution with 101 ppm at t=0, 9 days at 21° C.): 82 ppm | concentration of natamycin after storage ([4]; non-buffered solution with 202 ppm at t=0, pH 6.4-6.6 (HCl), 24 hours at 21° C.): 192 ppm | concentration of natamycin after storage ([4]; non-buffered solution with 202 ppm at t=0, 9 days at 6° C.): 198 ppm | amount of dissolved natamycin relative to maximum solubility in water at the same pH ([5]; Example 1 buffered solutions): at least 6 times | amount of natamycin after storage (HPLC) ([5]; solution with 57 ppm at t=0, 0.2% ethanol, citrate buffer pH 6.5): 57 ppm | concentration of natamycin after storage ([5]; solution with 57 ppm at t=0, 0.2% ethanol, citrate buffer, 9 days at 6° C.): 49 ppm | amount of natamycin after storage (HPLC) ([5]; solution with 101 ppm at t=0, 0.4% ethanol, citrate buffer): 97 ppm | concentration of natamycin after storage ([5]; solution with 101 ppm at t=0, 0.4% ethanol, citrate buffer, 9 days at 6° C.): 100 ppm | concentration of natamycin after storage ([5]; solution with 101 ppm at t=0, citrate buffer, 9 days at 21° C.): 99 ppm | amount of natamycin after storage (HPLC) ([5]; solution with 202 ppm at t=0, 0.8% ethanol, citrate buffer): 196 ppm | concentration of natamycin after storage ([5]; solution with 202 ppm at t=0, 0.8% ethanol, citrate buffer, 9 days at 6° C.): 170 ppm | minimal inhibitory concentration [6]: less than 5 ppm
